Data on 26 compounds can be found in PubChem BioAssay AID192 (DTP/NCI, 2004).

Where “and” joins values, the source holds several entries; their conditions need not be identical. Equal entries are not always repeated. Toxic doses and inconclusive results are not listed.

For the test, the system named is BDF1 mice, B16 melanoma ip, median survival T/C. Briefly: NCI In Vivo Anticancer Drug Screen. Data for tumor model B16 Melanoma (intraperitoneal) in B6D2F1 (BDF1) mice. The following applies: endpoint: median survival time, higher = longer survival. In outline:
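Each result divides a survival or tumor-size measurement in the compound-treated group by the same measurement in the vehicle group.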

Setting [1] is: dose: 25.0 mg/kg/injection, schedule: Q01DX009 (ip), vehicle: Klucel (hydroxypropylcellulose) (HPC).
The mark [2] stands for this setting: dose: 100.0 mg/kg/injection, schedule: Q01DX009 (ip), vehicle: Klucel (hydroxypropylcellulose) (HPC).
[3] abbreviates: dose: 25.0 mg/kg/injection, schedule: Q01DX009 (ip), vehicle: saline with Tween-80.
The mark [4] stands for this setting: dose: 50.0 mg/kg/injection, schedule: Q01DX009 (ip), vehicle: saline with Tween-80.
The mark [5] stands for this setting: dose: 100.0 mg/kg/injection, schedule: Q01DX009 (ip), vehicle: saline with Tween-80.
[6] abbreviates: dose: 200.0 mg/kg/injection, schedule: Q01DX009 (ip), vehicle: saline with Tween-80.
The mark [7] stands for this setting: dose: 100.0 mg/kg/injection, schedule: Q01DX009 (ip), vehicle: saline.
The mark [8] stands for this setting: dose: 200.0 mg/kg/injection, schedule: Q01DX009 (ip), vehicle: saline.
Where [9] appears, read: dose: 200.0 mg/kg/injection, schedule: Q01DX009 (ip), vehicle: Klucel (hydroxypropylcellulose) (HPC).
The mark [10] stands for this setting: dose: 400.0 mg/kg/injection, schedule: Q01DX009 (ip), vehicle: Klucel (hydroxypropylcellulose) (HPC).
Where [11] appears, read: dose: 6.25 mg/kg/injection, schedule: Q01DX009 (ip), vehicle: Klucel (hydroxypropylcellulose) (HPC).
[12] abbreviates: dose: 12.5 mg/kg/injection, schedule: Q01DX009 (ip), vehicle: Klucel (hydroxypropylcellulose) (HPC).

For the compound `Nc1ccccc1SC1CC(=O)N(c2ccccc2)C1=O` (stereo not given), the T/C was 97 % of control under setting [1]; 91 % of control (dose: 50.0 mg/kg/injection, schedule: Q01DX009 (ip), vehicle: Klucel (hydroxypropylcellulose) (HPC)); 90 % of control and 92 % of control under setting [2].
Take `CCC(=O)Nc1cc(C(F)(F)F)ccc1Cl`: the T/C is 100 % of control under setting [3]; 101 % of control and 119 % of control under setting [4]; 96 % of control and 105 % of control under setting [5]; 105 % of control under setting [6].
`CC1CC(C)(C)C(C[NH-])C1[NH-].[Cl][Pt+2][Cl]` (stereo not given): the T/C reads like this: (dose: 4.0 mg/kg/injection, schedule: Q01DX009 (ip), vehicle: other) 153 % of control; (dose: 8.0 mg/kg/injection, schedule: Q01DX009 (ip), vehicle: other) 150 % of control; (dose: 16.0 mg/kg/injection, schedule: Q01DX009 (ip), vehicle: other) 112 % of control.
As for `O=C(NC(Cc1ccccc1)C(=O)O)c1ccccc1` (stereo not given), the T/C is 90 % of control under setting [4] and 96 % of control under setting [5].
As for `ClCC[N+]12CC[N+](CCCl)(CC1)C2` (tested in a mixture with another compound), the T/C reads like this: (dose: 50.0 mg/kg/injection, schedule: Q01DX009 (ip), vehicle: saline) 120 % of control; under setting [7], 115 % of control; under setting [8], 121 % of control.
Turning to `CC(=O)ON=C1C=CC(=C(C#N)c2ccccc2)C=C1`, the T/C is, setting by setting: under setting [3], 86 % of control; under setting [4], 86 % of control; under setting [5], 92 % of control.
Take `COc1cccc(NC(=O)Nc2cccc(Cl)c2)c1`: the T/C reads like this: under setting [2], 103 % of control; under setting [9], 96 % of control; under setting [10], 103 % of control.
Regarding `S=C(NC1CCCCC1)NC1CCCCC1`, the T/C under setting [5] was 95 % of control; the T/C under setting [6] is 114 % of control; the T/C (dose: 400.0 mg/kg/injection, schedule: Q01DX009 (ip), vehicle: saline with Tween-80) was 90 % of control.
Consider `COc1ccc(S(=O)O)cc1NC(C)=O`, for which the T/C (dose: 100.0 mg/kg/injection, schedule: Q04DX003 (ip), vehicle: Klucel (hydroxypropylcellulose) (HPC)) was 95 % of control.
With `CCCCCCCCCCCCCCCCCCN(C)C`, the T/C was 104 % of control under setting [11]; 107 % of control under setting [12]; 89 % of control and 101 % of control under setting [1].
For the compound `CN(C)CCCC(=O)O`, the T/C is, setting by setting: under setting [7], 98 % of control; under setting [8], 96 % of control; (dose: 400.0 mg/kg/injection, schedule: Q01DX009 (ip), vehicle: saline) 93 % of control.
As to `[Cu+2].[NH-]CC(=O)O.[NH-]CC(=O)O`, the T/C is, setting by setting: (dose: 2.5 mg/kg/injection, schedule: Q01DX009 (ip), vehicle: saline) 97 % of control; (dose: 2.5 mg/kg/injection, schedule: Q04DX003 (ip), vehicle: saline with Tween-80) 121 % of control; (dose: 5.0 mg/kg/injection, schedule: Q01DX009 (ip), vehicle: saline) 95 % of control and 102 % of control; (dose: 5.0 mg/kg/injection, schedule: Q04DX003 (ip), vehicle: saline with Tween-80) 115 % of control; (dose: 10.0 mg/kg/injection, schedule: Q01DX009 (ip), vehicle: saline) 95 % of control and 100 % of control; (dose: 10.0 mg/kg/injection, schedule: Q04DX003 (ip), vehicle: saline with Tween-80) 100 % of control.
As to `CC(=O)CC(=O)Nc1ncccc1C`, the T/C was 111 % of control (dose: 25.0 mg/kg/injection, schedule: Q01DX009 (ip), vehicle: carboxymethylcellulose (CMC)); 106 % of control (dose: 50.0 mg/kg/injection, schedule: Q01DX009 (ip), vehicle: carboxymethylcellulose (CMC)); 107 % of control (dose: 100.0 mg/kg/injection, schedule: Q01DX009 (ip), vehicle: carboxymethylcellulose (CMC)).
For the compound `CCCCCCCCCCCCCCCCCCOCC(CO)OC` (stereo not given), the T/C was 102 % of control under setting [3], 100 % of control under setting [4], 98 % of control under setting [5] and 92 % of control under setting [6].
On to `CCCCCCCCC(=O)CCCCC`, for which the T/C (dose: 75.0 mg/kg/injection, schedule: Q01DX009 (ip), vehicle: Klucel (hydroxypropylcellulose) (HPC)) was 104 % of control; the T/C (dose: 150.0 mg/kg/injection, schedule: Q01DX009 (ip), vehicle: Klucel (hydroxypropylcellulose) (HPC)) was 103 % of control; the T/C (dose: 300.0 mg/kg/injection, schedule: Q01DX009 (ip), vehicle: Klucel (hydroxypropylcellulose) (HPC)) is 103 % of control.
As for `Cc1ccc(NC(=O)Nc2ccccc2)cc1Cl`, the T/C reads like this: (dose: 100.0 mg/kg/injection, schedule: Q01DX008 (sc), vehicle: olive oil, sesame oil, peanut oil) 99 % of control; (dose: 200.0 mg/kg/injection, schedule: Q01DX008 (sc), vehicle: olive oil, sesame oil, peanut oil) 96 % of control; (dose: 400.0 mg/kg/injection, schedule: Q01DX008 (sc), vehicle: olive oil, sesame oil, peanut oil) 98 % of control.
For the compound `COc1cccc(N=Cc2ccc(C=Nc3cccc(OC)c3)cc2)c1`, the T/C by setting is: under setting [2], 107 % of control; under setting [9], 96 % of control; under setting [10], 96 % of control.
As to `O=C(Nc1ccc(F)cc1)NC1CCCCC1`, the T/C under setting [2] was 87 % of control and the T/C under setting [9] was 100 % of control.
For the compound `O=C1CC(=O)C(Br)=C1Br`, the T/C reads like this: (dose: 0.08 mg/kg/injection, schedule: Q01DX009 (ip), vehicle: saline with Tween-80) 97 % of control; (dose: 0.15 mg/kg/injection, schedule: Q01DX009 (ip), vehicle: saline with Tween-80) 93 % of control; (dose: 0.3 mg/kg/injection, schedule: Q01DX009 (ip), vehicle: saline with Tween-80) 95 % of control; (dose: 0.37 mg/kg/injection, schedule: Q04DX003 (ip), vehicle: saline with Tween-80) 94 % of control; (dose: 75.0 micrograms/kg/injection, schedule: Q04DX003 (ip), vehicle: saline with Tween-80) 92 % of control; (dose: 150.0 micrograms/kg/injection, schedule: Q04DX003 (ip), vehicle: saline with Tween-80) 92 % of control. Also, the T/C (dose: 300.0 micrograms/kg/injection, schedule: Q04DX003 (ip), vehicle: saline with Tween-80) is 91 % of control.
As for `C=C1C(=O)OC2C3OC(C)(CCC(O)C3COC(C)=O)CC(OC(=O)/C(=C/C)COC(C)=O)C12` (stereo not given), the T/C (dose: 0.04 mg/kg/injection, schedule: Q01DX009 (ip), vehicle: suspension in saline) is 111 % of control; the T/C (dose: 0.09 mg/kg/injection, schedule: Q01DX009 (ip), vehicle: suspension in saline) is 109 % of control; the T/C (dose: 0.18 mg/kg/injection, schedule: Q01DX009 (ip), vehicle: suspension in saline) was 107 % of control; the T/C (dose: 0.37 mg/kg/injection, schedule: Q01DX009 (ip), vehicle: suspension in saline) was 91 % of control; the T/C under setting [11] was 91 % of control; the T/C under setting [12] was 98 % of control. Besides, the T/C under setting [1] was 105 % of control.
For the compound `Cc1cc(C)c(NC(=O)N(CCCl)N=O)cc1C`, the T/C runs as follows: (dose: 23.0 mg/kg/injection, schedule: Q01DX009 (ip), vehicle: saline) 197 % of control; (dose: 45.0 mg/kg/injection, schedule: Q01DX009 (ip), vehicle: saline) 229 % of control.
With `CCCCCn1c(C)cc(/C=C\c2ccc3cc(C)ccc3[n+]2C)c1C`, the T/C runs as follows: (dose: 0.62 mg/kg/injection, schedule: Q01DX009 (ip), vehicle: Klucel (hydroxypropylcellulose) (HPC)) 93 % of control; (dose: 1.25 mg/kg/injection, schedule: Q01DX009 (ip), vehicle: Klucel (hydroxypropylcellulose) (HPC)) 87 % of control.
`CC(=O)NC1CC2c3ccccc3C1([N+](=O)[O-])c1ccccc12` (stereo not given): the T/C was 100 % of control under setting [2], 94 % of control under setting [9] and 91 % of control under setting [10].
On to `O=C1C=CC(=C(c2ccccc2)c2ccccc2)C=C1`, for which the T/C reads like this: under setting [11], 96 % of control; under setting [12], 100 % of control; (dose: 12.5 mg/kg/injection, schedule: Q04DX003 (ip), vehicle: Klucel (hydroxypropylcellulose) (HPC)) 96 % of control; under setting [1], 96 % of control; (dose: 25.0 mg/kg/injection, schedule: Q04DX003 (ip), vehicle: Klucel (hydroxypropylcellulose) (HPC)) 100 % of control.
For `O=NNc1cnccn1`, the T/C (dose: 25.0 mg/kg/injection, schedule: Q01DX009 (ip), vehicle: water) is 164 % of control.
On to `CC(C)NC(=O)c1ccc(N/N=[N+](/C)[O-])cc1`, for which the T/C by setting is: under setting [3], 121 % of control; under setting [4], 107 % of control; under setting [5], 93 % of control and 111 % of control.
